These results are taken from a melting point compilation (Tetko et al.; mined from patent text by program, amines drawn as free bases though some values may be those of a salt).

Turning to `COC(=O)C=Cc1ccc(OCc2nc(-c3ccccc3)oc2C)c(C(F)(F)F)c1`, the melting point (usually the temperature of the solid-liquid transition) was 148 to 149 °C.

`CN1CCN(c2ncc(-c3ccccc3)c(C(=O)N(C)Cc3cc(C(F)(F)F)cc(C(F)(F)F)c3)n2)CC1` had a melting point of 162 to 163 °C.

`NC(=O)CN1C(=O)CN2C(=O)CCC12` (stereo not drawn): the melting point lay in the range of 182 to 185 °C.

For `COCCCNc1cccc(Oc2ccc(-c3cn(C4CCOCC4)c4ncnc(N)c34)cc2)c1C#N`, the melting point was in the range of 205 to 207 °C.

Regarding `COc1cc(C(=O)O)cc(OC)c1CC(C)C`, the melting point is 160 to 162 °C.

The compound `CCCCCCCCCCn1c(=O)n(C2OC(CO)C(O)C2O)c2nc(N)[nH]c(=O)c21` (stereo not drawn) had a melting point of 174 to 176 °C.

As to `CC1Oc2cc(F)c(N)cc2NC1=O` (stereo not drawn), the melting point lay in the range of 208 to 211 °C.

For the compound `CCCc1nc(C)n2[nH]c(=O)nc2c1Cc1ccc(-c2ccccc2C#N)cc1`, the melting point lay within 215 to 216 °C.

In turn, `Cc1ccc(-c2noc3c(Cl)c(OCC(=O)O)ccc23)o1` displayed a melting point of 217 to 219 °C.

Regarding `O=C(NC1N=C(c2ccccc2F)c2ccccc2NC1=O)c1ccsc1` (racemic), the melting point lay within 238 to 239 °C.

As to `COC(=O)N1CC(C(N)=O)C(c2ccc(OC)c(OC3CCCC3)c2)C1` (stereo not drawn), the melting point is 130 to 132 °C.

Compound `COCOc1ccc(C=C[N+](=O)[O-])cc1OCc1ccccc1` had a melting point of 75 to 76 °C.

Compound `Cc1c(C(=O)Nc2ccc(N3CCN(C4CCOCC4)CC3)c(C#N)c2)cnn1-c1ccc(F)cc1` showed a melting point of 240 °C.

As to `COc1ccc(-c2nc(Sc3ccc(Cl)cc3)[nH]c2-c2ccc(OC)cc2)cc1`, the melting point lay in the range of 121 to 122 °C.

The compound `CCn1c(=N)c(-c2ccsc2)cc2cnc(Nc3ccccc3)nc21` showed a melting point of 220 to 222 °C.

Turning to `CCCCC(CC)Nc1cc(C)nc(Cl)c1N` (stereo not drawn), the melting point is 139 to 140 °C.

`Cc1ccc2c(c1)NCc1ccccc1O2` registered a melting point of 84 to 86 °C.

The compound `O=C(CCCN1CCOCC1)c1ccc2c(c1)Cc1cc(C(=O)CCCN3CCOCC3)ccc1-2` had a melting point of 166 to 168 °C.

On to `NS(=O)(=O)c1ccc(NN=C2C(=O)Nc3ccc(C(=O)NCCN4CCOCC4)cc32)cc1`, for which the melting point lay within 210 to 212 °C.

With `COc1ccccc1CNc1ccc2cc(Nc3ncccn3)ccc2n1`, the melting point was 175 °C.

In turn, `CC1(C)CCC(C)(C)c2cc(-c3cccc(-c4ccc(C(=O)O)cc4)c3O)ccc21` showed a melting point of 121 °C.

In the case of `COc1ccccc1Oc1cccc(CC(=O)O)c1O`, the melting point was 125 to 126 °C.

The compound `COC(=O)CCC(=O)SCC(=O)NC(C)=O` had a melting point of 111 to 113 °C.

`CN(C)N1C2=NCCN2C(=O)c2ccccc21` returned a melting point of 197 to 198 °C.

As to `COC(=O)C=Cc1ccc2c(c1)Cc1cc(C=CC(=O)OC)ccc1-2`, the melting point lay in the range of 206 to 209 °C.

The compound `COc1cc(C=CC(=O)Nc2c(CCO)nc3c(C)cc(C)cc3c2-c2ccccc2Cl)ccc1O` registered a melting point of 133 to 134 °C.

As to `O=C(O)CCc1cnoc1-c1ccc(F)c(Br)c1`, the melting point was 136 to 137 °C.

With `CN1CCN(c2ncnc3oc(-c4ccc(N)nc4)c(-c4ccccc4)c23)CC1`, the melting point was 229 to 231 °C.

`COC(=O)NCc1nc(-c2cc(C(C)(C)C)c(O)c(C(C)(C)C)c2)cs1` came in with a melting point of 94 to 95.9 °C.

The compound `CCOC(=O)c1cnc2c(cnn2-c2ccccc2)c1N(Cc1ccccc1)S(=O)(=O)c1ccc(OC)cc1` gave a melting point of 124 to 126 °C.

`NC(=O)c1cc(NCc2cccc(Cl)c2)c([N+](=O)[O-])cc1[N+](=O)[O-]` registered a melting point of 178 to 180 °C.

The compound `COc1c(C)cc(C)cc1CCC(=O)O` yielded a melting point of 74 to 75 °C.

Turning to `COc1ccc(C(=O)Nc2ccccc2)cc1NC(=S)Nc1cc(Cl)cc(Cl)c1`, the melting point lay in the range of 195 to 197 °C.

Turning to `COc1cccc(OC)c1C(=O)C=Cc1c(Cl)cccc1Cl`, the melting point lay in the range of 127 to 128 °C.

Consider `Cc1sc(-c2ccccc2)nc1COc1ccc(COc2ccccc2CC(=O)O)cc1`, for which the melting point fell in the range of 122 to 123 °C.

For `Cc1ccc(-c2ccc([C@H](C)N3CC[C@](CC(C)(C)O)(c4ccccc4)OC3=O)cc2)nn1`, the melting point lay in the range of 150 to 152 °C.

For `C=C1CC2C(=O)C(c3c(CC)cc(C)cc3CC)=C(OCc3ccccc3)C2C1` (stereo not drawn), the melting point fell in the range of 87 to 88 °C.

`O=C(O)Cc1c(C(=O)c2cc(CO)ccn2)[nH]c2ccc(Cl)cc12` displayed a melting point of 218 to 219 °C.

With `CCS(=O)(=O)Nc1cc(-n2nc3n(c2=O)CCCC3)c(F)cc1C(N)=S`, the melting point was 220 °C.

Compound `Nc1cccc(S(=O)(=O)C(F)(F)C(F)Cl)c1` (stereo not drawn) registered a melting point of 66 to 67.5 °C.

Compound `COc1cc(-c2ccc(-c3ccc(N=Nc4ccccn4)c(OC)c3)o2)ccc1N=Nc1ccccn1` gave a melting point of 212 to 213 °C.

As to `COC(=O)N1C(=O)C=CC1=O`, the melting point lay in the range of 61 to 63 °C.

`Clc1ccc(OCc2ccccc2)c(OCc2ccccc2)c1Cl` returned a melting point of 74 to 75.5 °C.

Turning to `CC(C)(Cn1cncn1)C(=O)C=Cc1ccc2ccccc2c1`, the melting point was 103 to 104 °C.

For `Nc1cc2c(cc1N)OCOC2`, the melting point lay in the range of 156 to 158 °C.

The compound `CCCCC1(CCCC)CCc2c(OCc3ccc4ccccc4n3)cccc2C1O` (stereo not drawn) showed a melting point of 62 to 65 °C.

`O=C(OCCN1CCNC1=Nc1ccccc1N1CCOCC1)c1ccccc1` returned a melting point of 92 to 94 °C.

Turning to `CCOC(=O)NCc1cc(-c2ccc(Cl)cc2)no1`, the melting point is 137 °C.

For the compound `COc1ncc(C)cc1Nc1cc(C#N)c2c(c1)[C@@H]1CNCC[C@@H]1N2C`, the melting point fell in the range of 76 to 80 °C.

`O=c1[nH]c2ccccc2n1Cc1ccccc1` came in with a melting point of 194 °C.

`COc1ccc(S(C)=O)cc1C(=O)O` (stereo not drawn) returned a melting point of 114 to 116 °C.

Turning to `O=C1CC(c2ccc(-c3ccc(OCc4ccc(Br)cc4)cc3)cc2)Cc2ccccc21` (stereo not drawn), the melting point was determined as 191 °C.

In turn, `CC1(C)OCc2cccc(Cc3c[nH]cn3)c2O1` came in with a melting point of 160 to 170 °C.

For `CC(C)(O)Cn1c(CO)nc2c(N)nc3cc(CCC(=O)N4CCOCC4)ccc3c21`, the melting point was in the range of 223 to 225 °C.

For the compound `CCOC(=O)c1c(C(F)(F)F)nc(C(F)(F)F)c(C)c1OCC(=O)c1ccccc1`, the melting point lay within 95 to 97 °C.

With `Cc1nc2cnccc2n1-c1ccc(OCc2cccc(C(=O)O)c2)cc1`, the melting point is 255 to 258 °C.

The compound `O=c1c(-c2ccccc2)c(Cn2cnc3c(Cl)ncnc32)oc2ccccc12` showed a melting point of 187 to 190 °C.

In the case of `COc1ccc(C(=O)OC2C=C(C)C(=O)CC(C)(C)C2O)cc1` (stereo not drawn), the melting point lay in the range of 108 to 110 °C.

Regarding `O=C1CCc2cc(Cl)ccc2C(=O)CCCN1`, the melting point lay in the range of 142 to 144 °C.

`CC#CCOc1cc(-c2ccccc2)ncn1`: the melting point was 59.6 °C.

As for `O=C(Nc1nc(-c2ccco2)c(-c2ccncc2)s1)c1ccn(Cc2ccccc2)c(=O)c1`, the melting point is 244 to 248 °C.

In turn, `CCOC(=O)C(=O)Cc1cc(=O)n(Cc2ccc(Cl)cc2)c2ccccc12` registered a melting point of 180 to 182 °C.

Compound `Cc1cc(C(=O)O)ncc1C(c1cc(F)ccc1F)S(=O)(=O)c1ccc(Cl)cc1` (stereo not drawn) showed a melting point of 208 to 209 °C.

`CC(Oc1cc2c(c(Cl)c1Cl)C(=O)C(C)(C1CCCC1)C2)C(=O)O` (stereo not drawn) displayed a melting point of 140 to 142 °C.

For the compound `COc1cccc(CSc2nnc(-c3ccc4c(c3)CCO4)o2)c1`, the melting point lay in the range of 91 to 93 °C.

`O=C1c2ccccc2C(=O)N1CCCCN1CCC(c2c[nH]c3ccccc23)CC1` displayed a melting point of 106 to 108 °C.

In the case of `CC(C)(C)c1cc(C(N)=NO)cc2c1OCC2(C)C`, the melting point lay within 109 to 110 °C.

With `Cc1nc(C)c(-c2ccnc(Nc3ccc(NC(=O)CCl)cc3)n2)s1`, the melting point lay in the range of 217 to 219 °C.

Regarding `CN1CCSC1=NCN1C(=O)CCC1=O`, the melting point is 142 to 144 °C.

`CCOC(=O)c1cc(N(C)S(C)(=O)=O)c(C)nc1C(=O)OCC` registered a melting point of 90 to 93 °C.

As to `CC#CC(O)(Cn1cncn1)c1ccc(Oc2ccc(Cl)cc2)cc1C(F)(F)F` (stereo not drawn), the melting point was determined as 137 °C.

With `CSCc1c(N)c(Br)cc(F)c1F`, the melting point was in the range of 60 to 61 °C.

In turn, `CCC1(CC(=NNc2ccc([N+](=O)[O-])cc2[N+](=O)[O-])C(=O)OC)CCCN2CCc3c([nH]c4ccccc34)C21` (stereo not drawn) returned a melting point of 205 to 206 °C.

The compound `O=C(Nc1nnn[nH]1)c1c[nH]c(=S)n1C1CCc2c(F)cc(F)cc2C1` (stereo not drawn) displayed a melting point of 228 to 230 °C.

Compound `Nc1cc(-c2ccccn2)cc2nc(-c3ccccc3)nn12` displayed a melting point of 278 to 280 °C.

Take `CCOC(=O)c1cccc(C=Cc2ccccc2)c1`: the melting point was determined as 82 °C.

In turn, `O=[N+]([O-])c1cccn2nc(SCc3ccccc3)nc12` showed a melting point of 125 to 126 °C.

In the case of `COc1cccc2c(Nc3ccc(C)c(O)c3)c(C#N)cnc12`, the melting point is 148 to 150 °C.

Turning to `O=[N+]([O-])c1ccc2c(c1)CN(C(c1ccccc1)c1ccccc1)C2`, the melting point lay in the range of 154 to 155 °C.

`c1ccc(N2CCN(Cc3n[nH]c4ccccc34)CC2)nc1` displayed a melting point of 148 to 150 °C.

`O=C1NC(=O)C(c2ccccc2Cl)C1SC1=NCCS1` (stereo not drawn) returned a melting point of 195 to 200 °C.

In the case of `Cc1ccc(C(CC(=O)O)C(C#N)c2cccnc2)cc1` (stereo not drawn), the melting point lay within 185 to 187 °C.

`CCn1c(=O)c(=O)[nH]c2ccc([N+](=O)[O-])cc21`: the melting point is > 300 °C.

Take `COc1cc(OCC(=O)O)c(C)cc1SCc1sc(-c2ccc(C(F)(F)F)cc2)nc1C`: the melting point was 211 to 213 °C.

Turning to `COCc1ccc(C(=O)NC(C#N)n2cccn2)cc1` (stereo not drawn), the melting point lay within 155 to 157 °C.

As to `CS(=O)(=O)c1ccc(-c2c(-c3ccc(F)cc3)c(OCC(=O)c3ccc(F)cc3)nn2CC(=O)c2ccc(F)cc2)cc1`, the melting point lay in the range of 194 to 196 °C.

In the case of `Cc1ccc(S(=O)(=O)OCC2Cc3cccc(-c4cccc(F)c4)c3O2)cc1` (stereo not drawn), the melting point fell in the range of 88 to 90 °C.

`Nc1c(-c2ccc(-c3cccnc3)cc2)nc2ccc(F)cc2c1C(=O)O`: the melting point was in the range of 260 to 268 °C.
